Consider one molecule from patent publication US6017880A, “Inhibition of retrovirus infection” (Amgen Inc., priority 1995, dated 2000).

The subject of this assay is U937 cells. Nature of the assay: Number of SLPI binding sites on PMA-induced U937 cells (Scatchard plot). The class given is cell-based, human. Conditions: PMA 25 ng per ml, 48 hours, versus non-induced cells. The protocol: U937 cells were induced by 13-phorbol-12-myristate acetate ("PMA").
U937 cells at an initial concentration of 10,000 cells per ml were placed in two flasks. PMA was added to one flask at a final concentration of 25 ng per ml. After 48 hours, cells were harvested from both flasks. Using the method of Dripps et al., J. Biol. Chem., Vol. 266, No. 16, pp. 10331-10336 (1991), and labelling with I-125, having a specific activity of 91.5 Curries per millimole, the number of SLPI binding sites was determined. […] In this experiment, the Kd in non-induced cells was 1.1 lnM; The Kd in PMA-induced cells was 1.0 nM. The reduction in the number of SLPI binding sites in the PMA-induced cells is consistent with SLPI binding to elastase and cathepsin G on the cell surface.

Consider `CCCCCCCCCCCCCC(=O)O[C@@H]1[C@@H](C)[C@@]2(O)[C@@H](C=C(CO)C[C@]3(O)C(=O)C(C)=C[C@@H]23)[C@@H]2C(C)(C)[C@]12OC(C)=O` [PMA, 13-phorbol-12-myristate acetate], for which the “Reduction in the number of SLPI binding sites” value worked out at 70%.
